From publication PMC9122897, “SHR1032, a novel STING agonist, stimulates anti-tumor immunity and directly induces AML apoptosis” (Scientific Reports, 2022)

Target: T1, human STING (Homo sapiens, UniProt Q86WV6)
T1 construct: made in house; host or cells: E. coli
Test: Thermal shift assay
Assay type: binding
Conditions: human STING protein 5 uM; ligand bound vs apo
Description: We sought to develop small molecule compounds with increased STING agonist activity against human STING. GSK reported a series of non-CDN small molecules, represented by compound 1[13], with good human STING agonistic activity. Based on our molecular modeling analysis, along with the reported CDN-STING crystal structures, we designed a novel series of fused tricyclic heterocycle compounds and analyzed their binding to human STING with thermal shift assays and the potency in activation of STING signaling with a reporter cellular assay (Supplementary Table S1). Thermal shift assays measure the difference between apo STING and ligand bound STING in the inflection point at which 50% of protein is thermally unfolded (ΔTm). […] The ability of compounds to activate the IRF reporter gene in the THP1 cells was also evaluated.
The melting temperature (Tm) of human STING was determined by calculating the temperature at the inflection point of the thermal melt curve generated on a Roche LightCycler 480 using 384 plate format and 465–590 nm filter set. […] Florescence was measured while ramping the plate temperature from 20 to 95 °C and the resulting data was processed using ROCHE data analysis software. Delta Tms were calculated by subtracting the Tm of untreated protein from ligand treated samples. […]

T1 sequence (Q86WV6 155-341 limits assumed): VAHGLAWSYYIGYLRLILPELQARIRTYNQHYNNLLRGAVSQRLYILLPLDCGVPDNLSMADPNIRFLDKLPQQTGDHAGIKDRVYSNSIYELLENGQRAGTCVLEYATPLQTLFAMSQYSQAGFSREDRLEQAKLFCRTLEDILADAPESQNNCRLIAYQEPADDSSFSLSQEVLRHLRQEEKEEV

## CCn1nc(C)cc1C(=O)Nc1nc2cc(C(N)=O)cc(OC)c2n1CCC[C@H]1COc2cc(C(N)=O)cc3nc(NC(=O)c4cc(C)nn4CC)n1c23 [SHR1032]
  Thermal shift ∆Tm: 10.7 °C
